According to US6331553A, “Aromatic amine derivatives having NOS inhibiting action” (Chugai Seiyaku Kabushiki Kaisha, priority 1996, dated 2001):
Like-named read-outs stand apart in the source and are kept apart here.

Key:
[1] = test system: iNOS; conditions: reported in the literature; cited from earlier work
[2] = biological target: T1, iNOS (Rattus norvegicus, UniProt Q06518); assay: Inhibitory effect on crude iNOS (conversion of L-[3H]arginine to L-[3H]citrulline); type: biochemical, Rats (lungs, LPS treated); conditions: for IC50: mean values, duplicate, crude enzyme from lungs of LPS-treated rats, 37° C. 10 min, read-out: Inhibitory action IC50 iNOS; for Selectivity eNOS/iNOS: ratio of IC50 values eNOS/iNOS
T1 construct: a soluble cytosolic fraction of the finally obtained supernatant was used as the crude enzyme of iNOS; from tissue; host or cells: lungs of LPS-treated rats, soluble cytosolic fraction (100,000×g supernatant)
Method: (§1) Compounds of the invention were evaluated for their inhibitory effect on the presently known three NOS isoforms.
The crude enzyme of iNOS was prepared by the following procedure. Rats were administered LPS (10 mg/kg) intraperitoneally and, 6 h later, perfused in a transcardiac manner with physiological saline containing 10 U/ml of heparin; thereafter, lungs were taken out. Subsequently, 5 volumes of 50 mM Tris-HCl containing 1 mM DTT (pH 7.4) was added and the mixture was homogenized for 3 min, followed by centrifugation of the homogenate at 1,000×g for 10 min. The resulting supernatant was centrifuged at 100,000×g for 60 min and a soluble cytosolic fraction of the finally obtained supernatant was used as the crude enzyme of iNOS.
(§2) The reaction was started by addition of L-[^3 H] arginine. After incubation at 37° C. for 10 min, the reaction was terminated by addition of 2 ml of 50 mM Tris-HCl (pH 5.5) containing 1 mM EDTA and placing the mixture on ice. The reaction solution was passed through a cation-exchange resin column (Dowex AG50WX-8, Na^+ form, 3.2 ml) to separate the reaction product L-[^3 H] citrulline from the unreacted residual substrate L-[^3 H] arginine. The eluate was combined with another eluate resulting from the passage of a given amount of distilled water through the column and put into a minivial for recovery of L-[^3 H] citrulline. Thereafter, a scintillation fluid was added and the contained radioactivity was measured with a liquid scintillation counter to determine the amount of L-[^3 H] citrulline.
(§3) The activity of nNOS or eNOS was determined by subtracting the activity detected in the absence of CaCl2 and calmodulin from the activity detected in the presence of CaCl2 and calmodulin. The activity of iNOS was detected in the absence of CaCl2 and calmodulin. The protein concentration of each crude enzyme sample was determined with a micro-assay kit of Bio Rad Co. Each Experiment was conducted in a duplicate.
The table also lists the ratios of IC50 values to each other as an index of selectivity.

[3] = biological target: T2, nNOS (Rattus norvegicus, UniProt P29476); assay: biochemical; set-up: species or system male Sprague Dawley (SD) rats (cerebral cortex); conditions: for Selectivity eNOS/nNOS: ratio of IC50 values eNOS/nNOS; for Selectivity iNOS/nNOS: ratio of IC50 values iNOS/nNOS
T2 construct: a soluble cytosolic fraction of the finally obtained supernatant was used as the crude enzyme of nNOS; from tissue; host or cells: rat cerebral cortex, soluble cytosolic fraction (100,000×g supernatant)
Method: The crude enzyme of nNOS was prepared by the following procedure. Normal untreated male Sprague Dawley (SD) rats (body weight, 300-400 g) were decapitated; the whole brain was immediately taken out from each animal and the cerebral cortex was separated on ice. Then, 5 volumes of 50 mM Tris-HCl containing 1 mM DTT (pH 7.4) was added and the mixture was homogenized for 3 min and centrifuged at 1,000×g for 10 min. The resulting supernatant was further centrifuged at 100,000×g for 60 min and a soluble cytosolic fraction of the finally obtained supernatant was used as the crude enzyme of nNOS.

[4] = biological target: T3, eNOS (Bos taurus, UniProt P29473); assay: Inhibitory effect on crude eNOS (conversion of L-[3H]arginine to L-[3H]citrulline); type: biochemical, Cow (pulmonary arterial endothelium cells, CPAE)
T3 construct: the resulting supernatant was used as the crude enzyme of eNOS; endogenous in cells; host or cells: CPAE (cow pulmonary arterial endothelium cells), 1% Triton X-100 extract
T3 sequence (P29473 2-1205): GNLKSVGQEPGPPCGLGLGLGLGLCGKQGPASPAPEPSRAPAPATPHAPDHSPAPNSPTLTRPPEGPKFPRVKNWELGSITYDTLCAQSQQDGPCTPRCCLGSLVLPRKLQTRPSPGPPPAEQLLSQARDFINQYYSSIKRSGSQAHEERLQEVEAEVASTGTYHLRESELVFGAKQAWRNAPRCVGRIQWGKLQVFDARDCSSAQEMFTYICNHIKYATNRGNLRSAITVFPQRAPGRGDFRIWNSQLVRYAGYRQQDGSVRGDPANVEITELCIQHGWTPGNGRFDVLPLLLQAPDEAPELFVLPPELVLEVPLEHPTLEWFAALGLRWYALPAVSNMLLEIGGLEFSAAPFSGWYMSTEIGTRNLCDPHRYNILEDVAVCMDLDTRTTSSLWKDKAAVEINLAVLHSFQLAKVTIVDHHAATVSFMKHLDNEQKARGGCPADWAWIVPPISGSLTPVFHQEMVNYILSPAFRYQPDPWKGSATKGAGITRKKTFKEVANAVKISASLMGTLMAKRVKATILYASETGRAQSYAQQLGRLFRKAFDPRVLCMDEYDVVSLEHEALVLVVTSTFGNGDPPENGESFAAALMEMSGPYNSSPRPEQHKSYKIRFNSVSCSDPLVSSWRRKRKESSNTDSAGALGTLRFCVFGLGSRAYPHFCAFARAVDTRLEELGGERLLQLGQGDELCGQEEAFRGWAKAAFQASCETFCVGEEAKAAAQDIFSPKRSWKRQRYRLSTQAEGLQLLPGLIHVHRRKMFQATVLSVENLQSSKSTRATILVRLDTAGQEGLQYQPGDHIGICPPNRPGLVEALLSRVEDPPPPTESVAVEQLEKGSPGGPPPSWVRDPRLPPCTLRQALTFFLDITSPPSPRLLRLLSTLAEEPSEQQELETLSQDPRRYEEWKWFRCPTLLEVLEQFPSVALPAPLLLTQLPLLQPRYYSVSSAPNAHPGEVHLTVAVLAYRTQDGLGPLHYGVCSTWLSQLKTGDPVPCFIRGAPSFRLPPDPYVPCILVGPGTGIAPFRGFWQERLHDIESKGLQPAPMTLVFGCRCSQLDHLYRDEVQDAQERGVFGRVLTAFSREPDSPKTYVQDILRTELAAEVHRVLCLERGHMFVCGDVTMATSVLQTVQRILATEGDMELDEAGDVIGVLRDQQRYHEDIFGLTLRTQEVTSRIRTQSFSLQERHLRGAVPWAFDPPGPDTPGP
Method: as §1
Crude enzymes of the respective NOS isoforms were prepared by the following procedures (Nagafuji et al., Neuroreport 6, 1541-1545, 1995).
The crude enzyme of eNOS was prepared by the following procedure. Cow pulmonary arterial endothelium cells (CPAE) were cultured in a MEM medium containing 20% FBS. Several days later, the cells were detached from the flask using a 0.25% trypsin solution containing 1 mM EDTA and, after addition of a suitable amount of FBS, centrifuged at 1,000 rpm for 10 min. A suitable amount of Ca- and Mg-free phosphate buffer (pH 7.4) was added to the precipitating cells and they were centrifuged at 1,000 rpm for 10 min. The same step was repeated to wash the cells which, upon addition of 50 mM Tris-HCl (pH 7.4) containing 1% Triton X-100 and 1 mM DTT, were left to stand in ice for 1 h. Subsequently, the mixture was homogenized for 3 min and kept in ice for 30 min with occasional stirring. Finally, the mixture was centrifuged at 100,000×g for 60 min and the resulting supernatant was used as the crude enzyme of eNOS.
The method of measuring NOS activity was basically the same as already reported by the present inventors and consisted of determining quantitatively the conversion of a substrate L-[^3 H]arginine to a reaction product L-[^3 H] citrulline (Nagafuji et al., in Brain Edema IX (Ito et al, eds.) 60, pp. 285-288, 1994; Nagafuji et al., Neuroreport 6, 1541-1545, 1995)
The reaction solution consisted of 100 nM L-[^3 H] arginine, a prepared crude NOS enzyme sample (10-30 μg/ml protein), 1.25 mM CaCl2, 1 mM EDTA, 10 μg/ml calmodulin, 1 mM NADPH, 100 μM tetrahydrobiopterine, 10 μM FAD, 10 μM FMN and 50 mM Tris-HCl (pH 7.4), to which one of the compounds of the invention or one of the control compounds was added.
as §2, §3
Table 81 lists the mean values of IC50 (the concentration necessary to inhibit 50% activity) of all test compounds against each NOS isoform. The table also lists the ratios of IC50 values to each other as an index of selectivity.

[5] = test system: nNOS; conditions: reported in the literature; cited from earlier work
[6] = test system: nNOS; conditions: mouse model of focal cerebral ischemia; cited from earlier work
[7] = test system: NOS isoform; conditions: reported in the literature; cited from earlier work
[8] = mean values, duplicate, crude enzyme from rat cerebral cortex, 37° C. 10 min, read-out: Inhibitory action IC50 nNOS
[9] = mean values, duplicate, crude enzyme from CPAE cells, 37° C. 10 min, read-out: Inhibitory action IC50 eNOS

IC50 [3, 8] | Selectivity eNOS/nNOS [3] | IC50 [4, 9] | Compound | other results
– | – | – | N=C(N)NN [AG, aminoguanidine] | selectivity for iNOS [1]: a certain degree of selectivity for iNOS
22.6 nM | 14 | 322 nM | COc1ccc([N+](=O)[O-])c(Nc2cccc(CN)c2)n1 [Example 18] | IC50 [2]: 917 nM; Selectivity eNOS/iNOS [2]: 0.14; Selectivity iNOS/nNOS [3]: 41
70.8 nM | 13 | 947 nM | CCOc1ccc([N+](=O)[O-])c(Nc2cccc(CN)c2)n1 [Example 57] | –
126 nM | 13 | 1610 nM | CSc1ccc([N+](=O)[O-])c(Nc2cccc(CN)c2)n1 [Example 61] | –
126 nM | 5 | 679 nM | Cc1ccc([N+](=O)[O-])c(Nc2cccc(CN)c2)c1 [Example 151] | –
29.8 nM | 20 | 586 nM | COc1ccc([N+](=O)[O-])c(Nc2cccc(CN)c2)c1 [Example 153] | –
20.8 nM | 19 | 403 nM | COc1ccc([N+](=O)[O-])c(Nc2cccc(CN)c2C)n1 [Example 458] | –
112 nM | 11 | 1240 nM | COc1ccc([N+](=O)[O-])c(Nc2ccc(CCN)cc2)n1 [Example 460] | –
16.4 nM | 16 | 257 nM | COc1ccc([N+](=O)[O-])c(Nc2cccc(C(C)(C)N)c2)n1 [Example 462] | –
31.2 nM | 32 | 1000 nM | COc1ccc([N+](=O)[O-])c(Nc2cccc(CN)c2OC)n1 [Example 465] | –
35.5 nM | 12 | 421 nM | COc1ccc([N+](=O)[O-])c(Nc2ccc(Cl)c(CN)c2)n1 [Example 466] | –
19.6 nM | 14 | 275 nM | COc1ccc([N+](=O)[O-])c(Nc2ccc(F)c(CN)c2)n1 [Example 467] | –
56.3 nM | 44 | 2480 nM | CCOc1c(CN)cccc1Nc1nc(OC)ccc1[N+](=O)[O-] [Example 468] | –
40 nM | 25 | 994 nM | COc1ccc([N+](=O)[O-])c(Nc2cccc(CN)c2Cl)n1 [Example 469] | –
61.6 nM | 7 | 448 nM | Cc1ccnc(Nc2cccc(CN)c2)c1 [Example 478] | –
66.9 nM | 12 | 802 nM | Cc1ccnc(Nc2cccc(C(C)(C)N)c2)c1 [Example 479] | –
78.1 nM | 25 | 1980 nM | Cc1ccnc(Nc2cccc(CN)c2C)c1 [Example 481] | –

IC50 [3, 8] | Selectivity eNOS/nNOS [3] | IC50 [4, 9] | Compound | other results
50.5 nM | 27 | 1350 nM | CCc1ccc(Nc2cc(C)ccn2)cc1CN [Example 482] | –
65.4 nM | 11 | 711 nM | CCOc1ccc(Nc2cc(C)ccn2)cc1CN [Example 483] | –
54.4 nM | 53 | 2880 nM | Cc1ccnc(Nc2cccc(CN)c2Cl)c1 [Example 485] | IC50 [2]: 1770 nM; Selectivity eNOS/iNOS [2]: 1.6; Selectivity iNOS/nNOS [3]: 32
39.9 nM | 8 | 298 nM | Cc1ccnc(Nc2cccc(C3(N)CCC3)c2)c1 [Example 488] | –
– | – | – | Cc1ccnc(Nc2ccc(CCN)cc2)c1 [Example 489] | IC50 [3]: 22.1 nM
18.1 nM | 19 | 347 nM | CCOc1c(CN)cccc1Nc1cc(C)ccn1 [Example 490] | –
45.8 nM | 39 | 1770 nM | Cc1ccnc(Nc2ccc(Cl)c(CN)c2)c1 [Example 491] | –
29.1 nM | 45 | 1290 nM | CCCOc1c(CN)cccc1Nc1cc(C)ccn1 [Example 506] | –
19.5 nM | 25 | 485 nM | CCOc1c(Nc2cc(C)ccn2)ccc(Cl)c1CN [Example 521] | –
19.7 nM | 20 | 398 nM | CCOc1c(Nc2cc(C)ccn2)ccc(C)c1CN [Example 522] | –
25.9 nM | 28 | 713 nM | COc1c(CN)cccc1Nc1cc(C)ccn1 [Example 541] | –
12.5 nM | 20 | 250 nM | Cc1ccnc(Nc2cccc(CN)c2OC(C)C)c1 [Example 543] | –
– | – | – | CCSC(=N)NCCC[C@H](N)C(=O)O [L-EIN, S-ethyl-L-thiocitrulline] | selectivity for nNOS [5]: a certain degree of selectivity for nNOS
– | – | – | CSC(=N)NCCC[C@H](N)C(=O)O [L-MIN, S-methyl-L-thiocitrulline] | selectivity for nNOS [5]: a certain degree of selectivity for nNOS
– | – | – | N=C(NCCC[C@H](N)C(=O)O)N[N+](=O)[O-] [L-NA, N^G -nitro-L-arginine, reference compound] | IC50 [2]: 3460 nM; percent inhibition of nNOS activity and percent reduction of infarct volume [6]: correlate to each other
– | – | – | COC(=O)[C@@H](N)CCCNC(=N)N[N+](=O)[O-] [L-NAME, N^G -nitro-L-arginine methyl ester] | highly selective inhibitory effect on a specific NOS isoform [7]: no existing NOS inhibitors including L-NA and N^G -nitro-L-arginine methyl ester (L-NAME) have a highly selective inhibitory effect on a specific NOS isoform
– | – | – | CC(=N)NCCC[C@H](N)C(=O)O [L-NIO, N^G -iminoethyl-L-ornithine] | selectivity for iNOS [1]: a certain degree of selectivity for iNOS

Compound | IC50 [3, 8] | Selectivity eNOS/nNOS [3] | IC50 [4, 9] | other results
Cc1ccc([N+](=O)[O-])c(Nc2cccc(CN)c2)n1.Cl [Example 52, 2-(3-aminomethylphenylamino)-6-methyl-3-nitropyridine hydrochloride] | 79.8 nM | 19 | 1480 nM | –
CCc1ccc([N+](=O)[O-])c(Nc2cccc(CN)c2)n1.Cl [Example 53, 2-(3-aminomethylphenylamino)-6-ethyl-3-nitropyridine hydrochloride] | 86.1 nM | 77 | 6620 nM | –
Cc1ccnc(Nc2ccccc2CCN)c1 [Example 484] | – | 18 | – | IC50 [3]: 69.2 nM; IC50 [4]: 1260 nM
